Our source for the IC50 values is patent US20250115558A1, “PYRIDAZINE DERIVATIVES AND RELATED USES” (NodThera Limited, priority 2023, published 2025).

One experiment relates to THP-1. Nature of the experiment: THP-1 IC50 assay. Format: cell-based. The conditions noted are these: Homo sapiens; THP-1 cells.
The subject of experiment [1] is IL-1β release upon NLRP3 activation in peripheral blood mononuclear cells (PBMC). Nature of the experiment: PBMC IC50 Determination Assay. Format: cell-based. The conditions noted are these: Homo sapiens; inhibition of IL-1β release; LPS-primed PBMC stimulated with ATP or nigericin. Put shortly:
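Human PBMC from buffy coats primed 3 h with LPS (1 μg/mL in protocol B), then compound for 30 min, then ATP (5 mM) or nigericin (10 μM; protocol A only) for 1 h. IL-1β released into medium measured by ELISA at 450 nm (protocol A) or HTRF at […] (protocol B).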

SMILES strings stand for the structures. Counter-ions that a name gives are not always drawn. A value given as a limit tells only on which side of the number the result lay.

Take `Cc1cc(C(F)(F)F)cc(O)c1-c1ccc(CNC2CCN(C)C2=O)nn1` (stereo not shown) [Compound 113]: the IC50 in the experiment with THP-1 was 1000 to 3000 nM; in experiment [1] it was 500 to 1000 nM.

As to `Cc1cc(C(F)(F)F)cc(O)c1-c1ccc(CNC(=O)C2CCOCC2)nn1` [Compound 7, N-((6-(2-Hydroxy-6-methyl-4-(trifluoromethyl)phenyl)pyridazin-3-yl)methyl)tetrahydro-2H-pyran-4-carboxamide], the IC50 (in the experiment with THP-1; in experiment [1]) was 3000 to 10000 nM throughout.

On to `CC(=O)N1CC[C@@H](NCc2ccc(-c3c(C)cc(Cl)cc3O)nn2)C1` [Compound 72, (R)-1-(3-(((6-(4-Chloro-2-hydroxy-6-methylphenyl)pyridazin-3-yl)methyl)amino)pyrrolidin-1-yl)ethan-1-one], for which the values for the IC50 (in the experiment with THP-1; in experiment [1]) were 1000 to 3000 nM and 500 to 1000 nM, respectively.

Regarding `Cc1cc(C(F)(F)F)cc(O)c1-c1ccc(CNC2CC3(C2)CS(=O)(=O)C3)nn1` [Compound 3, 6-(((6-(2-Hydroxy-6-methyl-4-(trifluoromethyl)phenyl)pyridazin-3-yl)methyl)amino)-2-thiaspiro[3.3]heptane 2,2-dioxide], the IC50 (in the experiment with THP-1; in experiment [1]) was 500 to 1000 nM in each case.

Regarding `Cc1cc(Cl)cc(O)c1-c1ccc(CN2CCCC2)nn1` [Compound 54, 5-Chloro-3-methyl-2-(6-(pyrrolidin-1-ylmethyl)pyridazin-3-yl)phenol], the IC50 with THP-1 is 500 to 1000 nM; in experiment [1], < 500 nM.

Regarding `Cc1cc(C(F)(F)F)cc(O)c1-c1ccc(CNc2ccnn2C)nn1` [Compound 27], the IC50 with THP-1 fell in the range of 1000 to 3000 nM; in experiment [1] it was 500 to 1000 nM.

`Cc1cc(Cl)cc(O)c1-c1ccc(CNc2c(C)noc2C)nn1` [Compound 56, 5-Chloro-2-(6-(((3,5-dimethylisoxazol-4-yl)amino)methyl)pyridazin-3-yl)-3-methylphenol]: the IC50 in the experiment with THP-1 was in the range of 1000 to 3000 nM; in experiment [1], 500 to 1000 nM.

As to `Cc1cc(C(F)(F)F)cc(O)c1-c1ccc(CNCCN2CCOCC2)nn1` [Compound 144], the concentration for half-maximal inhibition (IC50) in the experiment on THP-1 was 3000 to 10000 nM; in experiment [1] it was 1000 to 3000 nM.

Take `Cc1cc(C(F)(F)F)cc(O)c1-c1ccc(CN[C@H]2CCC(=O)N(C)C2)nn1` [Compound 88]: the IC50 (with THP-1; in experiment [1]) was < 500 nM in each case.

In the case of `Cc1cc(C(F)(F)F)cc(O)c1-c1ccc(CNc2c(C)noc2C)nn1` [Compound 51, 2-(6-(((3,5-Dimethylisoxazol-4-yl)amino)methyl)pyridazin-3-yl)-3-methyl-5-(trifluoromethyl)phenol], the IC50 with THP-1 fell in the range of 1000 to 3000 nM; in experiment [1] it was 500 to 1000 nM.

Regarding `Cc1cc(OC(F)(F)F)cc(O)c1-c1ccc(CNC2CCOCC2)nn1` [Compound 30, 3-Methyl-2-(6-(((tetrahydro-2H-pyran-4-yl)amino)methyl)pyridazin-3-yl)-5-(trifluoromethoxy)phenol], the IC50 (in the experiment on THP-1; in experiment [1]) was 3000 to 10000 nM in each case.

Consider `Cc1cc(C(F)(F)F)cc(O)c1-c1ccc(CNCC2CCCN2C)nn1` (stereo not shown) [Compound 76, 3-Methyl-2-(6-((((1-methylpyrrolidin-2-yl)methyl)amino)methyl)pyridazin-3-yl)-5-(trifluoromethyl)phenol dihydrochloride], for which the IC50 (in the experiment with THP-1; in experiment [1]) was 1000 to 3000 nM throughout.

Turning to `Oc1cc(Cl)cc(F)c1-c1ccc(CNC2CCOCC2)nn1` [Compound 69, 5-Chloro-3-fluoro-2-(6-(((tetrahydro-2H-pyran-4-yl)amino)methyl)pyridazin-3-yl)phenol hydrochloride], the IC50 (with THP-1; in experiment [1]) was 3000 to 10000 nM each time.

Regarding `Cc1cc(C(F)(F)F)cc(O)c1-c1ccc(CNCCN(C)C)nn1` [Compound 116], the IC50 (in the experiment with THP-1; in experiment [1]) was 3000 to 10000 nM throughout.

Consider `Cc1cc(NCc2ccc(-c3c(C)cc(C(F)(F)F)cc3O)nn2)sn1` [Compound 84, 3-Methyl-2-(6-{[(3-methyl-1,2-thiazol-5-yl)amino]methyl}pyridazin-3-yl)-5-(trifluoromethyl)phenol], for which the IC50 (in the experiment on THP-1; in experiment [1]) was 500 to 1000 nM in each case.

On to `Cc1cc(C(F)(F)F)cc(O)c1-c1ccc(CN2C(=O)CCC2(C)C)nn1` [Compound 47, 1-((6-(2-Hydroxy-6-methyl-4-(trifluoromethyl)phenyl)pyridazin-3-yl)methyl)-5,5-dimethylpyrrolidin-2-one], for which the IC50 was 3000 to 10000 nM in the experiment with THP-1 and 1000 to 3000 nM in experiment [1].

As to `Cc1cc(Cl)cc(O)c1-c1ccc(CN[C@H]2CC(=O)N(C)C2)nn1` [Compound 90, (4S)-4-({[6-(4-Chloro-2-hydroxy-6-methylphenyl)pyridazin-3-yl]methyl}amino)-1-methylpyrrolidin-2-one], the IC50 with THP-1 was 500 to 1000 nM; in experiment [1], < 500 nM.

With `Cc1cc(C(F)(F)F)cc(O)c1-c1ccc(CNCC2CCOC2)nn1` (stereo not shown) [Compound 105], the IC50 was in the range of 3000 to 10000 nM in the experiment on THP-1 and 1000 to 3000 nM in experiment [1].

Turning to `Cc1cc(C(F)(F)F)cc(O)c1-c1ccc(CNC2CCCN(C)C2)nn1` (stereo not shown) [Compound 22], the IC50 (in the experiment with THP-1; in experiment [1]) was 1000 to 3000 nM in each case.

Turning to `CCNCc1ccc(-c2c(C)cc(C(F)(F)F)cc2O)nn1` [Compound 98], the IC50 with THP-1 was 500 to 1000 nM; in experiment [1], < 500 nM.

On to `Cc1cc(C(F)(F)F)cc(O)c1-c1ccc(CNC2(C)CCOCC2)nn1` [Compound 5, 3-Methyl-2-(6-(((4-methyltetrahydro-2H-pyran-4-yl)amino)methyl)pyridazin-3-yl)-5-(trifluoromethyl)phenol], for which the IC50 (with THP-1; in experiment [1]) was 500 to 1000 nM each time.

For the molecule `Cc1cc(C(F)(F)F)cc(O)c1-c1ccc(CN2CC(C)CC2=O)nn1` (stereo not shown) [Compound 46, 1-((6-(2-Hydroxy-6-methyl-4-(trifluoromethyl)phenyl)pyridazin-3-yl)methyl)-4-methylpyrrolidin-2-one], the IC50 (in the experiment on THP-1; in experiment [1]) was 1000 to 3000 nM in each case.

Turning to `Cc1cc(C(F)(F)F)cc(O)c1-c1ccc(CNc2conc2C)nn1` [Compound 55, 3-Methyl-2-(6-(((3-methylisoxazol-4-yl)amino)methyl)pyridazin-3-yl)-5-(trifluoromethyl)phenol], the IC50 (with THP-1; in experiment [1]) was 500 to 1000 nM in each case.

Take `Cc1cc(Cl)cc(O)c1-c1ccc(CO[C@H]2CCOC2)nn1` [Compound 64, (S)-5-Chloro-3-methyl-2-(6-(((tetrahydrofuran-3-yl)oxy)methyl)pyridazin-3-yl)phenol]: the IC50 (in the experiment with THP-1; in experiment [1]) was < 500 nM each time.

With `Cc1cc(C(F)(F)F)cc(O)c1-c1ccc(CNc2cnoc2)nn1` [Compound 124], the IC50 (with THP-1; in experiment [1]) was < 500 nM throughout.

For `Cc1cc(C(F)(F)F)cc(O)c1-c1ccc(C(C)N2CCCC2=O)nn1` (stereo not shown) [Compound 80, 1-(1-{6-[2-Hydroxy-6-methyl-4-(trifluoromethyl)phenyl]pyridazin-3-yl}ethyl)pyrrolidin-2-one], the figures for the half-maximal inhibitory concentration (IC50) (in the experiment with THP-1; in experiment [1]) were 1000 to 3000 nM and < 500 nM, respectively.

In the case of `Cc1cc(C(F)(F)F)cc(O)c1-c1ccc(CNC2(C)CCOC2)nn1` (stereo not shown) [Compound 6, 3-Methyl-2-(6-(((3-methyltetrahydrofuran-3-yl)amino)methyl)pyridazin-3-yl)-5-(trifluoromethyl)phenol hydrochloride], the IC50 (in the experiment with THP-1; in experiment [1]) was 500 to 1000 nM throughout.

For the molecule `Cc1cc(NCc2ccc(-c3c(C)cc(C(F)(F)F)cc3O)nn2)no1` [Compound 31, 3-Methyl-2-(6-(((5-methylisoxazol-3-yl)amino)methyl)pyridazin-3-yl)-5-(trifluoromethyl)phenol], the values for the IC50 (with THP-1; in experiment [1]) were 1000 to 3000 nM and < 500 nM, respectively.

In the case of `Cc1cc(C(F)(F)F)cc(O)c1-c1ccc(CNc2cscn2)nn1` [Compound 28], the IC50 (in the experiment with THP-1; in experiment [1]) was 500 to 1000 nM each time.

With `Cc1cc(C(F)(F)F)cc(O)c1-c1ccc(CN2CCN(C)CC2)nn1` [Compound 131], the IC50 in the experiment on THP-1 was in the range of 3000 to 10000 nM; in experiment [1], 1000 to 3000 nM.

For the molecule `Cc1cc(C(F)(F)F)cc(O)c1-c1ccc(CNCCC(C)(C)O)nn1` [Compound 118], the IC50 in the experiment on THP-1 was 3000 to 10000 nM; in experiment [1], 1000 to 3000 nM.

`Cc1cc(C(F)(F)F)cc(O)c1-c1ccc(CN(C)C)nn1` [Compound 94]: the IC50 (in the experiment on THP-1; in experiment [1]) was 1000 to 3000 nM in each case.

For the molecule `Cc1cc(C(F)(F)F)cc(O)c1-c1ccc(COC2CCCN(C)C2)nn1` (stereo not shown) [Compound 41, 3-Methyl-2-(6-(((1-methylpiperidin-3-yl)oxy)methyl)pyridazin-3-yl)-5-(trifluoromethyl)phenol hydrochloride], the IC50 with THP-1 was 1000 to 3000 nM; in experiment [1] it was 500 to 1000 nM.

`Cc1cc(C(F)(F)F)cc(O)c1-c1ccc(CNCC2CCCOC2)nn1` (stereo not shown) [Compound 108]: the IC50 (in the experiment on THP-1; in experiment [1]) was 3000 to 10000 nM each time.

On to `CC(=O)N1CCC(OCc2ccc(-c3c(C)cc(Cl)cc3O)nn2)C1` (stereo not shown) [Compound 68, 1-(3-((6-(4-Chloro-2-hydroxy-6-methylphenyl)pyridazin-3-yl)methoxy)pyrrolidin-1-yl)ethan-1-one], for which the IC50 (in the experiment on THP-1; in experiment [1]) was 500 to 1000 nM in each case.

Take `Cc1cc(C(F)(F)F)cc(O)c1-c1ccc(CN[C@@H]2CCC(=O)N(C)C2)nn1` [Compound 43, (R)-5-(((6-(2-Hydroxy-6-methyl-4-(trifluoromethyl)phenyl)pyridazin-3-yl)methyl)amino)-1-methylpiperidin-2-one]: the IC50 in the experiment on THP-1 was 500 to 1000 nM; in experiment [1], < 500 nM.

As to `Cc1cc(CNC2CCOCC2)nnc1-c1c(C)cc(C(F)(F)F)cc1O` [Compound 10, 3-Methyl-2-(4-methyl-6-(((tetrahydro-2H-pyran-4-yl)amino)methyl)pyridazin-3-yl)-5-(trifluoromethyl)phenol], the IC50 (in the experiment on THP-1; in experiment [1]) was 1000 to 3000 nM in each case.

With `Cc1cc(C(F)(F)F)cc(O)c1-c1ccc(CNCc2cccs2)nn1` [Compound 141], the IC50 is 1000 to 3000 nM in the experiment with THP-1 and < 500 nM in experiment [1].

As usually defined, the IC50 is the point on the concentration scale where inhibition reaches its midpoint. Low readings indicate inhibition by little substance, high ones a need for much substance.
